The record followed here is US8846000B2, “Radiolabeled PDE10 inhibitors” (Merck Sharp & Dohme Corp., priority 2009, dated 2014).

This assay addresses human PDE10A2 (Homo sapiens (Human), UniProt Q9Y233). As to the kind of experiment: PDE10 fluorescence polarization (IMAP FP) assay. The class given is biochemical. The following applies: inhibition of FAM-labeled cAMP hydrolysis, apparent inhibition constant. As to the method: The activity of the compounds in accordance with the present invention as PDE10 inhibitors may be readily determined without undue experimentation using a fluorescence polarization (FP) methodology well known in the art (Huang, W., et al., J. Biomol Screen, 2002, 7: 215).
In a typical experiment the PDE10 inhibitory activity of the compounds of the present invention was determined in accordance with the following experimental method. PDE10A2 was amplified from human fetal brain cDNA (Clontech, Mountain View, Calif.) using a forward primer corresponding to nucleotides 56-77 of human PDE10A2 (Accession No. AF127480, Genbank Identifier 4894716), containing a Kozak consensus sequence, and a reverse primer Corresponding to nucleotides 2406-2413 of human PDE100A2 (Accession No. AF127480, Genbank Identifier 4894716). Amplification with Easy-A polymerase (Stratagene, La Jolla, Calif.) was 95° C. for 2 minutes followed by thirty three cycles of 95° C. for 40 seconds, 55° C. for 30 seconds, and 72° C. for 2 minutes 48 seconds. Final extension was 72° C. for 7 minutes. The PCR product was TA cloned into pcDNA3.2-TOPO (Invitrogen, Carlsbad, Calif.) according to standard protocol.
AD293 cells with 70-80% confluency were transiently transfected with human PDE10A2/pcDNA3.2-TOPO using Lipofectamine 2000 according to manufacturer specifications (Invitrogen, Carlsbad, Calif.). Cells were harvested 48 hours post-transfection and lysed by sonication (setting 3, 10×5 sec pulses) in a buffer containing 20 mM HEPES, 1 mM EDTA and protease inhibitor cocktail (Roche). Lysate was collected by centrifugation at 75,000×g for 20 minutes. Supernatant containing the cytoplasmic fraction was used for evaluation of PDE100A2 activity.
The fluorescence polarization assay for cyclic nucleotide phosphodiesterases was performed using an IMAP® FP kit supplied by Molecular Devices, Sunnyvale, Calif. (product #R8139). IMAP® technology has been applied previously to phosphodiesterase assays (Huang, W., et al., J. Biomol Screen, 2002, 7: 215). Assays were performed at room temperature in 384-well microtiter plates with an incubation volume of 20.2 μL. Solutions of test compounds were prepared in DMSO and serially diluted with DMSO to yield 8 μL of each of 10 solutions differing by 3-fold in concentration, at 32 serial dilutions per plate. 100% inhibition is determined using a known PDE10 inhibitor, which can be any compound that is present at 5,000 times its Ki value in the assay described as follows, such as papaverine (see Siuciak, et al. Neuropharmacology (2006) 51:386-396; Becker, et al. Behav Brain Res (2008) 186(2):155-60; Threlfell, et al., J Pharmacol Exp Ther (2009) 328(3):785-795), 2-{4-[pyridin-4-yl-1-(2,2,2-trifluoroethyl)-1H-pyrazol-3-yl]phenoxymethyl}quinoline succinic acid or 2-[4-(1-methyl-4-pyridin-4-yl-1H-pyrazol-3-yl)-phenoxymethyl]quinoline succinic acid (see Schmidt, et al. J Pharmacol Exp Ther (2008) 325:681-690; Threlfell, et al., J Pharmacol Exp Ther (2009) 328(3): 785-795). 0% of inhibition is determined by using DMSO (1% final concentrations).
A Labcyte Echo 555 (Labcyte, Sunnyvale, Calif.) is used to dispense […] from each well of the titration plate to the 384 well assay plate. A solution of enzyme (1/1600 dilution from aliquots; sufficient to produce 20% substrate conversion) and a separate solution of FAM-labeled cAMP PDE from Molecular Devices (product #R7506), at a final concentration of 50 nM are made in the assay buffer (10 mM Tris HCl, pH 7.2, 10 mM MgCl2, 0.05% NaN3 0.01% Tween-20, and 1 mM DTT). The enzyme and the substrate are then added to the assay plates in two consecutive additions of 10 μL, and then shaken to mix. The reaction is allowed to proceed at room temperature for 30 minutes. A binding solution is then made from the kit components, comprised of 80% Solution A, 20% Solution B and binding reagent at a volume of 1/600 the total binding solution. […]
A general note: Polarisation of emitted light reports the rotation of a fluorescent probe.

Chain of human PDE10A2 (Q9Y233 267-1055): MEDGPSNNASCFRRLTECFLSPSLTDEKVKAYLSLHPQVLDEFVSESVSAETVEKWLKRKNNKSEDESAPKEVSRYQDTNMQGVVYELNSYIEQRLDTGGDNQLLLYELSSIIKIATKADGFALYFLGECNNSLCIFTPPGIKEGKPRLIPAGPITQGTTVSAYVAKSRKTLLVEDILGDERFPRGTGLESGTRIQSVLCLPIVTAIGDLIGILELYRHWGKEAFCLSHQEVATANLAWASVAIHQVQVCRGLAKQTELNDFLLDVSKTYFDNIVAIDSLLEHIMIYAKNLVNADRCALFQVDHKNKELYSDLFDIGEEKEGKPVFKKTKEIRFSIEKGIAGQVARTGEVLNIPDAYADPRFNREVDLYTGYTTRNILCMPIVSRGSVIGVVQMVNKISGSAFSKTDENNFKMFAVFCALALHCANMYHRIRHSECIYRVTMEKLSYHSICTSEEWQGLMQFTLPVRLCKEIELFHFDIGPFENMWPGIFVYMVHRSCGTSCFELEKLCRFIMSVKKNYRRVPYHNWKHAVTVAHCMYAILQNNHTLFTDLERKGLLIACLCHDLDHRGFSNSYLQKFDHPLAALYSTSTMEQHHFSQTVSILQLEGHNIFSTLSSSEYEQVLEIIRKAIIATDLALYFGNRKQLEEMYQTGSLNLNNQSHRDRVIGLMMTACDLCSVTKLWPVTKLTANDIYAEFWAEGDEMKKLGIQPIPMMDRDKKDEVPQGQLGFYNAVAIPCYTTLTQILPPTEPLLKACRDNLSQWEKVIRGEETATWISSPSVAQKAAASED

For `COc1ccc(-n2c(CCc3cn(C(=O)OC(C)(C)C)c4ccccc34)nc3ccccc3c2=O)cc1` [1-9, tert-butyl 3-{2-[3-(4-methoxyphenyl)-4-oxo-3,4-dihydroquinazolin-2-yl]ethyl}-1H-indole-1-carboxylate], the Ki is 39 nM.
On to `COc1ccc(-n2c(CCN3C(=O)c4ccccc4C3=O)nc3ncccc3c2=O)cc1` [1-1, 2-{2-[3-(4-methoxyphenyl)-4-oxo-3,4-dihydropyrido[2,3-d]pyrimidin-2-yl]ethyl}-1H-isoindole-1,3(2H)-dione], for which the Ki worked out at 39 nM.
The figure for `COc1ccc(-n2c(CCN3C(=O)c4cccc(OC5CCC5)c4C3=O)nc3ccccc3c2=O)cc1` [1-21, 4-(cyclobutyloxy)-2-{2-[3-(4-methoxyphenyl)-4-oxo-3,4-dihydroquinazolin-2-yl]ethyl}-1H-isoindole-1,3(2H)-dione] is 1 nM; for `Cc1ccc2c(=O)n(-c3ccc4cnn(C)c4c3)c(CCN3C(=O)c4cccc(OC(C)C)c4C3=O)nc2c1` [G-2, 2-{2-[7-methyl-3-(1-methyl-1H-indazol-6-yl)-4-oxo-3,4-dihydroquinazolin-2-yl]ethyl}-4-(propan-2-yloxy)-1H-isoindole-1,3(2H)-dione] it is 0.024 nM.
As for `COc1ccc(-n2c(CCN3C(=O)c4cccc(-c5ccncc5)c4C3=O)nc3ccccc3c2=O)cc1` [1-16, 2-{2-[3-(4-methoxyphenyl)-4-oxo-3,4-dihydroquinazolin-2-yl]ethyl}-4-pyridin-4-yl-1H-isoindole-1,3(2H)-dione], the Ki amounted to 0.073 nM.
The figure for `COc1ccc(-n2c(CCN3C(=O)c4cccc(OCC5CC5)c4C3=O)nc3ccccc3c2=O)cc1` [1-20, 4-(cyclopropyl-methoxy)-2-{2-[3-(4-methoxyphenyl)-4-oxo-3,4-dihydroquinazolin-2-yl]ethyl}-1H-isoindole-1,3(2H)-dione] is 1.3 nM; for `COc1ccc(-n2c(CCNC(=O)c3ccccc3OC)nc3ccccc3c2=O)cc1` [F-1, 2-methoxy-N-{2-[3-(4-methoxyphenyl)-4-oxo-3,4-dihydroquinazolin-2-yl]ethyl}benzamide] it is 140 nM; for `COc1ccc(-n2c(CCN3C(=O)c4cccc(C)c4C3=O)nc3ccccc3c2=O)cc1` [1-4, 2-{2-[3-(4-methoxyphenyl)-4-oxo-3,4-dihydroquinazolin-2-yl]ethyl}-4-methyl-1H-isoindole-1,3(2H)-dione] it is 61 nM.
The same measure for `COc1ccc(-n2c(CCN3C(=O)c4cccc(OC(C)C)c4C3=O)nc3ncccc3c2=O)cc1` [1-11, 4-isopropoxy-2-{2-[3-(4-methoxyphenyl)-4-oxo-3,4-dihydropyrido[2,3-d]pyrimidin-2-yl]ethyl}-1H-isoindole-1,3(2H)-dione]: 0.56 nM; for `COc1ccc(-n2c(CCN3C(=O)c4ccc(C)cc4C3=O)nc3ccccc3c2=O)cc1` [1-5, 2-{2-[3-(4-methoxyphenyl)-4-oxo-3,4-dihydroquinazolin-2-yl]ethyl}-5-methyl-1H-isoindole-1,3(2H)-dione]: 26 nM.
As to `COc1ccc(-n2c(CCN3C(=O)c4cccc(O)c4C3=O)nc3ccccc3c2=O)cc1` [B-2, 4-hydroxy-2-{2-[3-(4-methoxyphenyl)-4-oxo-3,4-dihydroquinazolin-2-yl]ethyl}-1H-isoindole-1,3(2H)-dione], the Ki is 22 nM.
The figure for `COc1ccc(-n2c(CCCN3C(=O)c4ccccc4C3=O)nc3ccccc3c2=O)cc1` [1-18, 2-{3-[3-(4-methoxyphenyl)-4-oxo-3,4-dihydroquinazolin-2-yl]propyl}-1H-isoindole-1,3(2H)-dione] is 219 nM; for `CC(C)Oc1cccc2c1C(=O)N(CCc1nc3ncccc3c(=O)n1-c1ccc3cn[nH]c3c1)C2=O` [1-15, 2-{2-[3-(1H-indazol-6-yl)-4-oxo-3,4-dihydropyrido[2,3-d]pyrimidin-2-yl]ethyl}-4-isopropoxy-1H-isoindole-1,3(2H)-dione] it is 0.48 nM; for `O=C1c2ccccc2C(=O)N1CCc1nc2ccccc2c(=O)n1-c1cccc(-c2ccccc2)c1` [1-2, 2-[2-(3-biphenyl-3-yl-4-oxo-3,4-dihydroquinazolin-2-yl)ethyl]-1H-isoindole-1,3(2H)-dione] it is 14 nM.
The same measure for `COc1ccc(-n2c(CCNC(=O)Nc3ccccc3-c3ccccc3)nc3ccccc3c2=O)cc1` [1-10, N-biphenyl-2-yl-N′-{2-[3-(4-methoxyphenyl)-4-oxo-3,4-dihydroquinazolin-2-yl]ethyl}urea]: 48 nM.
In the case of `CC(C)Oc1cccc2c1C(=O)N(CCc1nc3ccccc3c(=O)n1C1CCCCC1)C2=O` [1-25, 2-[2-(3-cyclohexyl-4-oxo-3,4-dihyroquinazolin-2-yl)ethyl]-4-(propan-2-yloxy)-1H-isoindole-1,3(2H)-dione], the Ki was found to be 11 nM.
With `CC(C)Oc1cccc2c1C(=O)N(CCc1nc3ccccc3c(=O)n1-c1ccc(OCc3ccccc3)cc1)C2=O` [D-5, 2-(2-{3-[4-(benzyloxy)phenyl]-4-oxo-3,4-dihydroquinazolin-2-yl}ethyl)-4-isopropoxy-1H-isoindole-1,3(2H)-dione], the Ki turned out to be 0.83 nM.
As to `COc1ccc(-n2c(CCN3C(=O)c4cccc(OC(C)C)c4C3=O)nc3nc(C)ccc3c2=O)cc1` [1-24, 2-{2-[3-(4-methoxyphenyl)-7-methyl-4-oxo-3,4-dihydropyrido[2,3-d]pyrimidin-2-yl]ethyl}-4-(propan-2-yloxy)-1H-isoindole-1,3(2H)-one], the Ki was 0.1 nM.
The figure for `CC(C)Oc1cccc2c1C(=O)N(CCc1nc3ccccc3c(=O)n1-c1ccc(OCCF)cc1)C2=O` [1-12, 2-(2-{3-[4-(2-fluoroethoxy)phenyl]-4-oxo-3,4-dihydroquinazolin-2-yl}ethyl)-4-isopropoxy-1H-isoindole-1,3(2H)-dione] is 0.19 nM; for `COc1ccc(-n2c(CCN3C(=O)c4cccc(C#N)c4C3=O)nc3ccccc3c2=O)cc1` [1-6, 2-{2-[3-(4-methoxyphenyl)-4-oxo-3,4-dihydroquinazolin-2-yl]ethyl}-1,3-dioxoisindoline-4-carbonitrile] it is 33 nM.
Regarding `Cc1ccc2c(=O)n(-c3ccc4cn[nH]c4c3)c(CCN3C(=O)c4cccc(OC(C)C)c4C3=O)nc2c1` [G-1, 2-{2-[3-(1H-indazol-6-yl)-7-methyl-4-oxo-3,4-dihydroquinazolin-2-yl]ethyl}-4-(propan-2-yloxy)-1H-isoindole-1,3(2H)-dione], the Ki was found to be 0.1 nM.
On to `COc1ccc2c(=O)n(-c3ccc4cc[nH]c4c3)c(CCN3C(=O)c4cccc(OC(C)C)c4C3=O)nc2c1` [1-13, 2-{2-[3-(1H-indol-6-yl)-7-methoxy-4-oxo-3,4-dihydroquinazolin-2-yl]ethyl}-4-isopropoxy-1H-isoindole-1,3(2H)-dione], for which the Ki amounted to 0.055 nM.
On to `COc1ccc2c(=O)n(-c3cccc(C)c3)c(CCN3C(=O)c4cccc(OC)c4C3=O)nc2c1` [1-7, 4-methoxy-2-{2-[7-methoxy-3-(3-methylphenyl)-4-oxo-3,4-dihydroquinazolin-2-yl]ethyl}-1H-isoindole-1,3(2H)-dione], for which the Ki turned out to be 0.7 nM.
`COc1ccc(-n2c(CCN3C(=O)c4cccc(-c5ncco5)c4C3=O)nc3ccccc3c2=O)cc1` [C-2, 2-{2-[3-(4-methoxyphenyl)-4-oxo-3,4-dihydroquinazolin-2-yl]ethyl}-4-(1,3-oxazol-2-yl)-1H-isoindole-1,3(2H)-dione]: the Ki amounted to 1.8 nM.
